The values below are quoted from earlier work in patent publication US9066956B2, “Vaginal ring comprising DHEA or DHEA sulfate and optionally a release-modulating agent of the active principle, useful to increase the ovarian reserve in women and to relieve symptoms associated with menopause” (Universidad de Chile, priority 2011, dated 2015).

Where two headings read alike, the source gives them in different places.

Series [1] relates to women.
Series [2] concerns infertile women with diminished ovarian reserve. The following applies: versus national U.S. IVF rates 2004.

Regarding “dehydroepiandrosterone sulphate [DHEA-S]”, the “daily production of DHEA-S converted to DHEA” value (women) is given as 64%.

Consider `C[C@]12CC[C@H](O)CC1=CC[C@@H]1[C@@H]2CC[C@]2(C)C(=O)CC[C@@H]12` [DHEA, dehydroepiandrosterone], for which the “DHEA metabolized back to DHEA-S” value (by sulfatase hydroxysteroid) is given as 13%. Further, the clinical pregnancies in series [1] (oral DHEA 75 mg daily up to four months before IVF, control group 11%) is 28%. In series [1] (oral DHEA 75 mg daily, control group 36%), the “rate of spontaneous abortions” value is reported as 20%. For the same compound, the “increase of clinical pregnancy” value in series [1] (oral DHEA versus control group) is reported as “at least 150%”. Further, the “Reduction of spontaneous abortions” value in series [2] (first fertility center (U.S.)) is recorded as 15.0%; in series [2] (second fertility center (Canada)), 15.2%.
